Each compound was assayed against T1, STING (Homo sapiens, UniProt Q86WV6, G230A/H232R/R293Q/R71H) (assay: STING reporter assay (luciferase) in THP1-Dual KO-IFNAR2 cells stimulated with 2′3′cGAMP). Conditions: 2′3′cGAMP 15 μM final, 24 h, luciferase reporter activity, read-out: Pharmaron, THP1_IFNAR2 STING 24 h Luci Normalized: GeoMean EC50.
T1 construct: host or cells: THP1-Dual KO-IFNAR2 cells
Format: cell-based
Experimental: STING pathway activation by the compounds described herein was measured using TTIP1-Dual™ cells (KO-IFNAR2).
TTIP1-Dual™ KO-IFNAR2 Cells (obtained from invivogen) were maintained in RPMI, 10% FCS, 5 ml P/S, 2 mM L-glut, 10 mM Hepes, and 1 mM sodium pyruvate. Compounds were spotted in empty 384 well tissue culture plates (Greiner 781182) by Echo for a final concentration of 0.0017-100 μM. Cells were plated into the TC plates at 40 μL per well, 2×10E6 cells/mL. For activation with STING ligand, 2′3′cGAMP (MW 718.38, obtained from Invivogen), was prepared in Optimem media.
The following solutions were prepared for each 1×384 plate: • Solution A: 2 mL Optimem with one of the following stimuli: • […] • Solution B: 2 mL Optimem with […] Lipofectamine 2000→Incubate 5 min at RT
2 mL of solution A and 2 ml Solution B was mixed and incubated for 20 min at room temperature (RT). 20 μL of transfection solution (A+B) was added on top of the plated cells, with a final 2′3′cGAMP concentration of 15 μM. The plates were then centrifuged immediately at 340 g for 1 minute, after which they were incubated at 37° C., 5% CO2, >98% humidity for 24 h. Luciferase reporter activity was then measured. EC50 values were calculated by using standard methods known in the art.
Luciferase reporter assay: 10 μL of supernatant from the assay was transferred to white 384-plate with flat bottom and squared wells. One pouch of QUANTI-Luc™ Plus was dissolved in 25 mL of water. 100 μL of QLC Stabilizer per 25 mL of QUANTI-Luc™ Plus solution was added. 50 μL of QUANTI-Luc™ Plus/QLC solution per well was then added. Luminescence was measured on a Platereader (e.g., Spectramax I3X (Molecular Devices GF3637001)).
Luciferase reporter activity was then measured. EC50 values were calculated by using standard methods known in the art.

T1 sequence (Q86WV6 whole entry R71H/G230A/H232R/R293Q): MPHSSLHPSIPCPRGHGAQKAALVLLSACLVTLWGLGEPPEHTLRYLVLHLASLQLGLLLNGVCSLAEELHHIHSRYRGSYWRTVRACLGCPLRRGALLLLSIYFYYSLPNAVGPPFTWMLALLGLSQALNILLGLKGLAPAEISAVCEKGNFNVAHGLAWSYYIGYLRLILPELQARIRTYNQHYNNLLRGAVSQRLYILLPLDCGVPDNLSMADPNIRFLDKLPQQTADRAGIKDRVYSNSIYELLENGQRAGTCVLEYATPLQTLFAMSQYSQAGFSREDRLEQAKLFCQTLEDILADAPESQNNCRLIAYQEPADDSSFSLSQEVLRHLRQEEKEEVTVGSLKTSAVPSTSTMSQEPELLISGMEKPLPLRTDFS

SMILES | EC50 [nM]
O=C(Nc1c[nH]c2ccc(OCc3ccc(C(F)(F)F)cc3)cc12)C1CC12CC2 (centres unmarked) [Compound 101, N-(5-((4-(trifluoromethyl)benzyl)oxy)-1H-indol-3-yl)spiro[2.2]pentane-1-carboxamide] | 200 to 1000
O=C(CC1CC1)Nc1c[nH]c2ccc(O[C@H]3C[C@@H](c4ccc(C(F)(F)F)cc4)C3)cc12 [Compound 102, 2-cyclopropyl-N-(5-((1s,3s)-3-(4-(trifluoromethyl)phenyl)cyclobutoxy)-1H-indol-3-yl)acetamide] | 40 to 200
O=C(Nc1c[nH]c2ccc(CCOc3ccc(C(F)(F)F)cc3)cc12)C1CC12CCC2 (centres unmarked) [Compound 104, N-(5-(2-(4-(trifluoromethyl)phenoxy)ethyl)-1H-indol-3-yl)spiro[2.3]hexane-1-carboxamide] | 200 to 1000
N#CC12CC(C(=O)Nc3c[nH]c4ccc(OCCc5ccc(C(F)(F)F)cc5)cc34)(C1)C2 [Compound 106, 3-cyano-N-(5-(4-(trifluoromethyl)phenethoxy)-1H-indol-3-yl)bicyclo[1.1.1]pentane-1-carboxamide] | 200 to 1000
CC12CC(C(=O)Nc3c[nH]c4ccc(OCCc5ccc(C(F)(F)F)cc5)cc34)(C1)C2 [Compound 107, 3-methyl-N-(5-(4-(trifluoromethyl)phenethoxy)-1H-indol-3-yl)bicyclo[1.1.1]pentane-1-carboxamide] | 200 to 1000
O=C(Nc1c[nH]c2ccc(OCCc3ccc(C(F)(F)F)cc3)cc12)C12CC(F)(C1)C2 [Compound 108, 3-fluoro-N-(5-(4-(trifluoromethyl)phenethoxy)-1H-indol-3-yl)bicyclo[1.1.1]pentane-1-carboxamide] | 200 to 1000
O=C(Nc1c[nH]c2ccc(CCOc3ccc(C(F)(F)F)cc3)cc12)C12CC(F)(C1)C2 [Compound 116, 3-fluoro-N-(5-(2-(4-(trifluoromethyl)phenoxy)ethyl)-1H-indol-3-yl)bicyclo[1.1.1]pentane-1-carboxamide] | 200 to 1000
Cc1oncc1C(=O)Nc1c[nH]c2ccc(CCOc3ccc(C(F)(F)F)cc3)cc12 [Compound 118] | 5000 to 100000
Cc1noc(C)c1C(=O)Nc1c[nH]c2ccc(CCOc3ccc(C(F)(F)F)cc3)cc12 [Compound 119, 3,5-dimethyl-N-(5-(2-(4-(trifluoromethyl)phenoxy)ethyl)-1H-indol-3-yl)isoxazole-4-carboxamide] | 200 to 1000
O=C(Nc1c[nH]c2ccc(OCCc3ccc(C(F)(F)F)cc3)cc12)C1CC12CC2 (centres unmarked) [Compound 126, N-(5-(4-(trifluoromethyl)phenethoxy)-1H-indol-3-yl)spiro[2.2]pentane-1-carboxamide] | 40 to 200
Cc1nnc(C(=O)Nc2c[nH]c3ccc(O[C@H]4C[C@H](c5ccc(C(F)(F)F)cc5)C4)cc23)s1 [Compound 127, 5-methyl-N-(5-((1r,3r)-3-(4-(trifluoromethyl)phenyl)cyclobutoxy)-1H-indol-3-yl)-1,3,4-thiadiazole-2-carboxamide] | 200 to 1000
Cn1cc(C(=O)Nc2c[nH]c3ccc(O[C@H]4C[C@H](c5ccc(C(F)(F)F)cc5)C4)cc23)nn1 [Compound 128, 1-methyl-N-(5-((1r,3r)-3-(4-(trifluoromethyl)phenyl)cyclobutoxy)-1H-indol-3-yl)-1H-1,2,3-triazole-4-carboxamide] | 200 to 1000
N#CC12CC(C(=O)Nc3c[nH]c4ccc(COCc5ccc(C(F)(F)F)cc5)cc34)(C1)C2 [Compound 129, 3-cyano-N-(5-(((4-(trifluoromethyl)benzyl)oxy)methyl)-1H-indol-3-yl)bicyclo[1.1.1]pentane-1-carboxamide] | 200 to 1000
O=C(Nc1c[nH]c2ccc(COCc3ccc(C(F)(F)F)cc3)cc12)C12CC(c3ccccc3)(C1)C2 [Compound 130, 3-phenyl-N-(5-(((4-(trifluoromethyl)benzyl)oxy)methyl)-1H-indol-3-yl)bicyclo[1.1.1]pentane-1-carboxamide] | 40 to 200
O=C(Nc1c[nH]c2ccc(OCCc3ccc(C(F)(F)F)cc3)cc12)C12CC(C1)C2 [Compound 131, N-(5-(4-(trifluoromethyl)phenethoxy)-1H-indol-3-yl)bicyclo[1.1.1]pentane-1-carboxamide] | 200 to 1000

The next lines start with the values.

EC50 [nM] | SMILES
200 to 1000 | Cn1nccc1C(=O)Nc1c[nH]c2ccc(CCOc3ccc(C(F)(F)F)cc3)cc12 [Compound 103, 1-methyl-N-(5-(2-(4-(trifluoromethyl)phenoxy)ethyl)-1H-indol-3-yl)-1H-pyrazole-5-carboxamide]
200 to 1000 | O=C(Nc1c[nH]c2ccc(OCCc3ccc(C(F)(F)F)cc3)cc12)c1ncccc1F [Compound 109, 3-fluoro-N-(5-(4-(trifluoromethyl)phenethoxy)-1H-indol-3-yl)picolinamide]
200 to 1000 | O=C(Nc1c[nH]c2ccc(OCCc3ccc(C(F)(F)F)cc3)cc12)c1nccs1 [Compound 110, N-(5-(4-(trifluoromethyl)phenethoxy)-1H-indol-3-yl)thiazole-2-carboxamide]
5000 to 100000 | Cc1oncc1C(=O)Nc1c[nH]c2ccc(OCCc3ccc(C(F)(F)F)cc3)cc12 [Compound 111]
200 to 1000 | Cc1noc(C)c1C(=O)Nc1c[nH]c2ccc(OCCc3ccc(C(F)(F)F)cc3)cc12 [Compound 112, 3,5-dimethyl-N-(5-(4-(trifluoromethyl)phenethoxy)-1H-indol-3-yl)isoxazole-4-carboxamide]
200 to 1000 | O=C(Nc1c[nH]c2ccc(OCCc3ccc(C(F)(F)F)cc3)cc12)c1cncs1 [Compound 113, N-(5-(4-(trifluoromethyl)phenethoxy)-1H-indol-3-yl)thiazole-5-carboxamide]
200 to 1000 | O=C(Nc1c[nH]c2ccc(OCCc3ccc(C(F)(F)F)cc3)cc12)c1cscn1 [Compound 114, N-(5-(4-(trifluoromethyl)phenethoxy)-1H-indol-3-yl)thiazole-4-carboxamide]
200 to 1000 | O=C(Nc1c[nH]c2ccc(CCOc3ccc(C(F)(F)F)cc3)cc12)c1ncccc1F [Compound 117, 3-fluoro-N-(5-(2-(4-(trifluoromethyl)phenoxy)ethyl)-1H-indol-3-yl)picolinamide]
200 to 1000 | O=C(Nc1c[nH]c2ccc(CCOc3ccc(C(F)(F)F)cc3)cc12)c1cncs1 [Compound 120, N-(5-(2-(4-(trifluoromethyl)phenoxy)ethyl)-1H-indol-3-yl)thiazole-5-carboxamide]
200 to 1000 | O=C(Nc1c[nH]c2ccc(OCCc3ccc(C(F)(F)F)cc3)cc12)c1ccncc1 [Compound 121, N-(5-(4-(trifluoromethyl)phenethoxy)-1H-indol-3-yl)isonicotinamide]
40 to 200 | O=C(Nc1c[nH]c2ccc(OCCc3ccc(C(F)(F)F)cc3)cc12)c1ccn[nH]1 [Compound 122, N-(5-(4-(trifluoromethyl)phenethoxy)-1H-indol-3-yl)-1H-pyrazole-5-carboxamide]
200 to 1000 | O=C(Nc1c[nH]c2ccc(OCCc3ccc(C(F)(F)F)cc3)cc12)c1cccnc1 [Compound 123, N-(5-(4-(trifluoromethyl)phenethoxy)-1H-indol-3-yl)nicotinamide]
1000 to 5000 | O=C(Nc1c[nH]c2ccc(OCCc3ccc(C(F)(F)F)cc3)cc12)c1ccccn1 [Compound 124, N-(5-(4-(trifluoromethyl)phenethoxy)-1H-indol-3-yl)picolinamide]
40 to 200 | O=C(CC1CC1)Nc1c[nH]c2ccc(OCCc3ccc(C(F)(F)F)cc3)cc12 [Compound 125, 2-cyclopropyl-N-(5-(4-(trifluoromethyl)phenethoxy)-1H-indol-3-yl)acetamide]

Reference: patent US20230250060A1 (IFM Due, Inc., priority 2022, published 2023)
